We go through seven compounds from US4645779A, “Dialkylaminoalkoxybenzylalcohol derivatives, process for their preparation and pharmaceutical compositions containing them” (Richter Gedeon Vegyeszeti Gyar Rt, priority 1982, dated 1987).

In one data set the test system is Hann.-Wistar rats. Description: Effect on ethanolic narcosis period (righting reflex). The data set is classed as in vivo, rat. Conditions: 1 h before ethanol 3.5 g./kg. i.p., control = 100 ± 4.0, n=10. The procedure:
The effect of the compounds according to the invention on ethanolic narcosis period was tested on Hann.-Wistar rats of both sexes, weighing 160 to 180 g. each. The animals were fasted for 16 hours prior to treatment. Groups of ten were then treated with various doses of the compounds of the formula (I) orally. One hour after treatment the animals were given a 3.5 g./kg. dose of ethanol, intraperitoneally. The narcosis period of the animals was measured from the elapse of the righting reflex until a spontaneous correction of the body position. The average of the narcosis period and the standard error were calculated, and the results are given in percentage of the control in Table 1. Abbreviations: x±S.E.=means value ± standard error n=number of animals The control group was treated with a placebo and a […]. dose of ethanol. Narcosis period of the control: 88.5±3.54x±S.E. minutes

The next data set deals with BALB/c mice. Description: Effect on ethanolic locomotoric hyperactivity / locomotor activity (Animex BSE motimeter). Conditions: n=15. The data set is classed as in vivo, mouse. The procedure: The effect of the compounds provided by the invention on ethanolic locomotoric hyperactivity was tested on BALB/c mice of both sexes, each weighing 16 to 18 g. The test materials were administered to groups of 15 in a 40 mg./kg. oral dose, one hour before administering a placebo orally or a 2 g./kg. dose of ethanol intraperitoneally. The control animals were treated with a placebo. The locomotor activity of the animals was measured for two hours, using an Animex BSE motimeter. The results are shown as a Table 2, in percentage of the control.
°Control (treated with placebo): ^-x ± S.E. = 3118.3 ±
305.6 total motion/2 hours

The nature of data set [1]: Acute toxicity, single oral dose, 14 days observation. In kind it is in vivo, rat. Particulars: rat, in vivo, po, 500 mg./kg. p.o., n=10, read-out: Perished animals (%). Here is the method:
(§1) The acute toxicity of the compounds provided by the invention was determined on Wistar rats of both sexes, each weighing 160 to 180 g., which had been treated with a single 500 mg./kg. dose of the test compounds, orally. […] In Table 3 the percentage of the perished animals is given.

The conditions of data set [2]: in vivo; cited from earlier work.
The conditions of data set [3]: in vivo; cited from earlier work. The source holds these as a separate data set.
Another data set relates to Wistar rats. Description: Acute toxicity, single oral dose, 14 days observation. The data set is classed as in vivo, rat. Conditions: 500 mg./kg. p.o., n=10. Here is the method: as §1
For another data set, the system named is mice. Particulars: cited from earlier work.

Each structure is given as a SMILES string.

In the case of `CCCN(CCC)CCCOc1ccc(C(O)(CC)c2cccc(Cl)c2)cc1` (stereo not drawn) [B, α-ethyl-α-(3-chlorophenyl)-4-[3-(di-n-propylamino)-propoxy]-benzylalcohol], the “Ethanolic narcosis period, control ± S.E. %” value with Hann.-Wistar rats (0.3 mg./kg. orally) worked out at 65 ± 6.8%; with Hann.-Wistar rats (1.0 mg./kg. orally), 53 ± 4.7%; in the data set with Hann.-Wistar rats (10.0 mg./kg. orally), 49 ± 2.8%. The “Locomotor activity total motion/2 hour (%)” value in the data set on BALB/c mice (B + ethanol 2000 mg./kg. i.p., 40 mg./kg. oral 1 h before, control = 100 ± 9.8, ethanol + placebo = 170 ± 11.8) stood at 70 ± 8.4%; with BALB/c mice (B + placebo (no ethanol), 40 mg./kg. oral, control = 100 ± 9.8), 108 ± 13.3%. In addition, the mortality at 336 h in data set [1] worked out at 0%.
As for `CC(N)Cc1ccccc1` (centres unmarked) [amphetamine], in data set [2], the “narcotizing effect of alcohol (in words)” value was “moderate the narcotizing effect of alcohol”. Also, in data set [3], the “motoric incoordination (ataxia) (in words)” value is listed as “prolong the motoric incoordination (ataxia)”.
As to `Cn1c(=O)c2c(ncn2C)n(C)c1=O` [caffeine], in data set [2], the “narcotizing effect of alcohol (in words)” value is listed as “moderate the narcotizing effect of alcohol”. For the same compound, the “motoric incoordination (ataxia) (in words)” value in data set [3] is given as “prolong the motoric incoordination (ataxia)”.
Turning to `N[C@@H](CS)C(=O)O` [L-cysteine, reference compound], the “Ethanolic narcosis period, control ± S.E. %” value with Hann.-Wistar rats (500.0 mg./kg. orally) turned out to be 63 ± 4.2%. Besides, the mortality at 336 h in data set [1] is 0%. Further, in data set [2], the “alcoholic intoxication, i.e. narcosis period (in words)” value is listed as “shortened”.
For `CCC(O)(c1ccc(OCCN(C(C)C)C(C)C)cc1)c1ccccc1C(F)(F)F` (stereo not drawn) [Compound C, α-ethyl-α-(2-trifluoromethylphenyl)-4-[3-(di-isopropylamino)-ethoxy]-benzylalcohol], in the data set with Hann.-Wistar rats (40.0 mg./kg. orally), the “Ethanolic narcosis period, control ± S.E. %” value is reported as 62 ± 5.1%. Also, in the data set on Wistar rats, the “Perished animals (%)” value was found to be 0%.
For `CCCN(CCC)CCCOc1ccc(C(O)(CC)c2ccccc2OC)cc1` (stereo not drawn) [A, α-ethyl-α-(2-methoxyphenyl)-4-[3-(di-n-propylamino)-propoxy]-benzylalcohol], the “Ethanolic narcosis period, control ± S.E. %” value in the data set with Hann.-Wistar rats (5.0 mg./kg. orally) stood at 60 ± 10.1%; in the data set on Hann.-Wistar rats (10.0 mg./kg. orally), 50 ± 6.9%. Moreover, the mortality at 336 h in data set [1] is 0%.
Take `CC(N)(Cc1ccc(O)cc1)C(=O)O` (stereo not drawn) [α-methyl-paratyrosine]: the “spontaneous locomotoric activity (in words)” value with mice (in the effective dose range) is recorded as “a decrease of the spontaneous locomotoric activity”. Besides, the “ethanolic locomotoric hyperactivity (in words)” value in the data set with mice (mice) was “normalizes the ethanolic locomotoric hyperactivity”.
